Results reported in PubChem BioAssay (NCI).
Where “and” joins values, the source holds several entries; their conditions need not be identical. Equal values may be shown once.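 96-well plates; 48 h exposure; 5 concentrations. Endpoints by linear interpolation between flanking doses. Not reached: highest tested concentration assigned. GI50: concentration for 50% inhibition of growth. TGI: total growth inhibition.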

Legend:
Test in all cases: NCI anticancer screen, dose series, 48 h
MDA-N = system: MDA-N
DLD-1 colon = system: DLD-1 colon
DMS 114 small cell lung = system: DMS 114 small cell lung
DMS 273 small cell lung = system: DMS 273 small cell lung
M19-MEL melanoma = system: M19-MEL melanoma
HOP-18 NSCLC = system: HOP-18 NSCLC
SNB-78 CNS = system: SNB-78 CNS
RXF-631 renal = system: RXF-631 renal
XF 498 CNS = system: XF 498 CNS
SN12K1 renal = system: SN12K1 renal

| Compound | TGI (MDA-N) | TGI (DLD-1 colon) | TGI (DMS 114 small cell lung) | TGI (DMS 273 small cell lung) | TGI (M19-MEL melanoma) | TGI (HOP-18 NSCLC) [µM] | TGI (SNB-78 CNS) [µM] | TGI (XF 498 CNS) | other results |
| --- | --- | --- | --- | --- | --- | --- | --- | --- | --- |
| CC(N)(Cc1c[nH]c2ccccc12)C(=O)O (configuration not stated) | > 100 µM |  |  |  |  |  |  |  |  |
| COc1cc[c]([Sb]([Br])([CH]=C(C)C)([CH]=C(C)C)[CH]=C(C)C)cc1 |  | > 100 µM | 20.8 µM | 23.3 µM | > 100 µM |  |  |  | GI50 (DLD-1 colon): 24.1 µM; GI50 (DMS 114 small cell lung): 3.02 µM; GI50 (DMS 273 small cell lung): 3.3 µM; GI50 (M19-MEL melanoma): 3.1 µM |
| NC(=S)N/N=C1\C(=O)N(CCc2ccccc2)C(=O)C1C(=O)NCCc1ccccc1 (configuration not stated) |  |  | > 100 µM | > 100 µM | > 100 µM | > 100 | > 100 |  |  |
| O=C(O)c1c([N+](=O)[O-])cc(C(F)(F)F)cc1[N+](=O)[O-] |  |  |  | > 100 µM | > 100 µM |  | > 100 | > 100 µM | TGI (RXF-631 renal): > 100 µM |
| CNS(=O)(=O)c1ccccc1C(=N)c1ccccc1 | > 100 µM |  |  |  |  |  |  |  |  |
| C/C(=C1/N=C(c2ccccc2)OC1=O)c1ccc(C)cc1 | > 100 µM |  |  |  |  |  |  |  |  |
| CCCCNC(=O)OCC(COc1ccccc1OC)OC(=O)NCCCC (configuration not stated) |  | > 100 µM | > 100 µM | > 100 µM | > 100 µM | > 100 | > 100 | > 100 µM | TGI (RXF-631 renal): > 100 µM |
| COc1ccc(C(=O)Nc2ccc(S(=O)(=O)NCC(=O)O)cc2)cc1 |  | > 100 µM |  | > 100 µM | > 100 µM | > 100 |  | > 100 µM | TGI (RXF-631 renal): > 100 µM |
| S=c1nc[nH]c2nc[nH]c12 | 636 µM and > 750 µM | > 750 µM | 385 µM | 565 µM | > 734 µM | 644 | 670 | 163 µM | GI50 (MDA-N): 7.85 µM; TGI (SN12K1 renal): 527 µM |
| CN(C)c1ccc(/C=C/c2ccnc3ccc4ccccc4c23)cc1 | > 100 µM |  |  |  |  |  |  |  |  |
| COc1ccc2nc3ccccc3c(NCCCCCN(CCCl)CCCl)c2c1 |  | 0.793 µM |  | 0.343 µM |  | > 27.3 | 2.96 | 0.0717 µM |  |
| Cc1coc2c1CC1OC1(C)CCC1OC1(C)C2 (configuration not stated) | > 100 µM |  |  |  |  |  |  |  |  |
| COC1=C(C)C(=O)C2=C(C1=O)C(CO)N1C(C#N)C3CC4C(C1C2N1CCOC41)N3C (configuration not stated) | 0.0156 µM and < 0.0374 µM | 0.836 µM and 5.2 µM | 0.0348 µM and 0.0203 µM | 0.0722 µM and 0.0676 µM | 0.177 µM and 0.11 µM | 0.326 |  | 0.0183 µM and 0.0285 µM | GI50 (DMS 114 small cell lung): 0.0141 µM; GI50 (HOP-18 NSCLC): 0.0484 µM; GI50 (M19-MEL melanoma): 0.0319 µM; TGI (RXF-631 renal): 3.4 µM; TGI (SN12K1 renal): 17.4 µM; GI50 (XF 498 CNS): 0.00607 µM |
| CN(C)CCNC(=O)c1cccc2cc([N+](=O)[O-])ccc12 | 6.23 µM | 1.55 µM | 0.743 µM | 0.722 µM | 0.902 µM | 4.4 | 1.61 | 1.04 µM |  |
| O=c1c2cc(Br)ccc2nc(-c2ccccc2)n1NCC1(O)OCC(O)C(O)C1O (configuration not stated) |  |  | > 100 µM | > 100 µM | > 100 µM |  | > 100 |  |  |
| CCC(C(=O)c1cccs1)C(O)(C(F)(F)F)C(F)(F)F (configuration not stated) | > 100 µM |  |  |  |  |  |  |  |  |
| CSc1c(S(C)=O)[nH]c2cc(Br)cc(Br)c12 (configuration not stated) |  | 51.9 µM |  | 35.1 µM | 75.4 µM | 80.5 | 57 |  |  |
| COc1ccc2[nH]c3c(C)c4cc[n+](C)cc4c(C)c3c2c1 | > 100 µM and 84.9 µM and 63 µM |  | 2.52 µM and 1.72 µM and 1.56 µM |  | 3.69 µM and 2.48 µM and 2.89 µM |  |  |  | GI50 (DLD-1 colon): 0.889 µM and 0.835 µM; GI50 (DMS 114 small cell lung): 0.104 µM; GI50 (DMS 273 small cell lung): 0.502 µM and 0.189 µM; GI50 (M19-MEL melanoma): 0.327 µM; GI50 (MDA-N): 9.89 µM and 2.19 µM and 14.7 µM; GI50 (SN12K1 renal): 0.146 µM; TGI (SN12K1 renal): 2.96 µM and 2.75 µM and 1.85 µM; GI50 (SNB-78 CNS): 0.478 µM and 0.243 µM |
| COc1cc([N+](=O)[O-])c(S(=O)(=O)O)cc1N | > 100 µM |  |  |  |  |  |  |  |  |
| CN(C)C(=S)/N=c1\ssc(=S)n1-c1ccccc1 |  | 26.9 µM | 31.1 µM | 38.3 µM | 30.4 µM | > 100 | 40 | 27.9 µM |  |
